Where two headings read alike, the source gives them in different places.

Assay [1] concerns Malignant mesothelioma (MM) cells. The assay can be described thus: Malignant mesothelioma cell viability (cell number), Example 1. In kind it is cell-based. To be noted: Homo sapiens. The procedure:
Malignant mesothelioma (MM) cells were incubated with increasing concentrations of TS (0-10 μM) and TLK-199 (0-200 μM) for 48 hours and then assayed for cell number (viability).

Assay [2] concerns patients with myelodysplatic syndrome. Conditions: 50-600 mg/m^2 IV over 60 minutes; cited from earlier work.
The subject of a further assay is MM cells. The assay can be described thus: Combinations administered to subjects with malignant mesothelioma, Example 8. The assay is classed as in vivo. The protocol:
Subjects with malignant mesothelioma (MM) are administered (1) thiostrepton (TS) and TLK-199, (2) TS, gentian violet (GV), and TLK or (3) GV and TLK-199.

A further assay has as its target T1, peroxiredoxin 3 (PRX3) (Homo sapiens, UniProt P30048).
T1 construct: endogenous in cells
T1 sequence (P30048 62-256): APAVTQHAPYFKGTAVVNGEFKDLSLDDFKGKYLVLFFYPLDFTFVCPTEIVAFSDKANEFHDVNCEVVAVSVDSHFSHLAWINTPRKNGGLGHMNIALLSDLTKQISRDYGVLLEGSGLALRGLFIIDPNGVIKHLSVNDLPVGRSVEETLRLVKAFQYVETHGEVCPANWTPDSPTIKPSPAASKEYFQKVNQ
The assay can be described thus: Covalent adduction of PRX3 in MM cells (reducing SDS-PAGE, western blot), Example 7. The assay is classed as cell-based. Conditions: 0, 2, 4 μM TS alone or with 30 μM TLK-199, 24 hours, FIG. 4. The protocol: Malignant mesothelioma (MM) cells were incubated with 0, 2,and 4 μM Thiostrepton (TS) alone or in the presence of 30 μM TLK-199 for 24 hours. Cell lysates were collected, and proteins were separated by reducing SDS-Polyacrylamide Gel Electrophoresis.
Background: In western blotting, separated proteins are transferred to a membrane and probed.

Setting [3] is: single agent, malignant mesothelioma cells, 48 hours, read-out: inhibitory concentration required to kill 50% of cells (IC50).

`CCOC(=O)[C@@H](NC(=O)[C@H](CSCc1ccccc1)NC(=O)CC[C@H](N)C(=O)OCC)c1ccccc1` [TLK-199, (S)-ethyl 2-amino-5-(((R)-3-(benzylthio)-1-(((S)-2-ethoxy-2-oxo-1-phenylethyl)amino)-1-oxopropan-2-yl)amino)-5-oxopentanoate]: the IC50 in assay [1] (setting [3]) amounted to 45 µM. Moreover, in assay [2], the “bone marrow maturation and cellularity” value is “Improvement in bone marrow maturation and cellularity”; the clinical symptoms result was “improvement in clinical symptoms”; the transfusion requirements entry is “reductions in transfusion requirements”. Further, the “effect of including TLK-199 on reduction in viability of MM cells” value with MM cells is given as “synergistic effect”.

Regarding `C=C(NC(=O)C(=C)NC(=O)c1csc(C2=N[C@@H]3c4csc(n4)[C@H]4NC(=O)c5csc(n5)[C@H]([C@](C)(O)[C@@H](C)O)NC(=O)[C@H]5CSC(=N5)/C(=C/C)NC(=O)[C@H]([C@@H](C)O)NC(=O)c5csc(n5)[C@]3(CC2)NC(=O)[C@H](C)NC(=O)C(=C)NC(=O)[C@H](C)NC(=O)[C@H]([C@@H](C)CC)N[C@@H]2C=Cc3c([C@H](C)O)cc(nc3[C@H]2O)C(=O)O[C@@H]4C)n1)C(N)=O` [TS, Thiostrepton], the IC50 in assay [1] (48 h, read-out: inhibitory concentration required to kill 50% of cells (IC50)) is roughly 1.5 µM; in assay [1] (read-out: calculated IC50), 0.9 to 2.4 µM. Further, the “covalent adduction of PRX3 (PRX3 dimer:monomer ratio)” value at peroxiredoxin 3 (PRX3) was “PRX3 monomers were covalently crosslinked”.

Consider `CN(C)c1ccc(C(=C2C=CC(=[N+](C)C)C=C2)c2ccc(N(C)C)cc2)cc1` [GV, Gentian violet], for which, in assay [1] (setting [3]), the IC50 worked out at 0.15 µM.
